Measurements: patent US7462615B2, “Inhibitors of cysteine proteases, the pharmaceutical compositions thereof and their therapeutic applications” (Hybrigenics SA, priority 2005, dated 2008)

Columns and labels:
USP5 = target: T1, USP5 (Homo sapiens, UniProt P45974); assay: USP5 Activity Assay; format: biochemical; conditions: 400 nM Ub-AMC; 300 pM enzyme; pre-incubated 30 minutes at 25° C., 60 minutes at 37° C.; sigmoidal fit; read-out: USP 5 (Inhibition of cysteine protease activities)
T1 sequence (P45974 1-858): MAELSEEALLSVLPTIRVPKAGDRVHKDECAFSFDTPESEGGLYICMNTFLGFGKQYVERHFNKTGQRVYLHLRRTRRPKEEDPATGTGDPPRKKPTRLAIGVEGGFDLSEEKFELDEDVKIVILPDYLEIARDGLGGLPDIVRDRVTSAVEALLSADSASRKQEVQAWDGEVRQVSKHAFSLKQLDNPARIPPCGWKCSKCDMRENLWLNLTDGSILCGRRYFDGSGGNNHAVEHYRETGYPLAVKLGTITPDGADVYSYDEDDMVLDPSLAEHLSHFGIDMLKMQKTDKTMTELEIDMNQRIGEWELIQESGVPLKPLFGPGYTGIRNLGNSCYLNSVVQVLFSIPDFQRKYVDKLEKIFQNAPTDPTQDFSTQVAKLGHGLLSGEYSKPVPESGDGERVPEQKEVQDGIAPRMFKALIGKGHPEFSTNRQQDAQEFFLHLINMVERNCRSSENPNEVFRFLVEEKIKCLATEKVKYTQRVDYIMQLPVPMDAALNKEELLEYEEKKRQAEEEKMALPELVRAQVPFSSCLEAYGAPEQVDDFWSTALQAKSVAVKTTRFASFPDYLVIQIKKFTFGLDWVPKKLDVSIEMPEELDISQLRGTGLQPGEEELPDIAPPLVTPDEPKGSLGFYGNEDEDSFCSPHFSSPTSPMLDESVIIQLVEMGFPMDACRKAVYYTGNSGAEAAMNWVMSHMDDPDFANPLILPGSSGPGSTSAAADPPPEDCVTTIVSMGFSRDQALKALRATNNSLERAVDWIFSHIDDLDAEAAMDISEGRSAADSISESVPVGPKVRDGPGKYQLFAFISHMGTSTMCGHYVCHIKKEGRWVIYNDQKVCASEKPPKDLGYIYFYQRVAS
Method: USP5 was diluted in USP buffer (50 mM Tris HCl; 0.5 mM EDTA; 5 mM DTT; 0.01% Triton X-100; Bovine Serum Albumin 0.05 mg.ml^−1 pH 7.6). Compounds stocks (100 mM) were stored at −20° C. in DMSO.
Reactions were performed as duplicates in Black LJL 96 well plates (HE microplates; Molecular Devices; 20 μl final reaction volume). The substrate concentration for USP5 was 400 nM Ub-AMC (Boston Biochem). The concentrations of the enzyme (USP5) in specificity assays was 300 pM. The concentrations were determined in order to perform specificity assays under initial velocities at fixed substrate concentration. Compounds were pre-incubated with enzymes for 30 minutes at 25° C. Reactions were initiated by addition of substrate to the plates containing the enzymes (+/− compounds) diluted in assay buffer. Reactions were incubated for 60 minutes at 37° C. Reactions were stopped by adding acetic acid (100 mM final). Readings were performed on a Pherastar Fluorescent Reader (BMG). λ Emission 380 nm; λ Excitation=460 nm. Data (mean values +/− standard deviation) were analyzed as % of control (no compound) and plotted as percentage versus the Log of the compound concentration using GraphPad (Prism). Data were fitted to a sigmoidal model (variable slope).

Cathepsin B = Cathepsin B (Homo sapiens, UniProt P07858); assay: Cathepsin B Activity Assay; format: biochemical; conditions: 36 μM z-RR-AMC; 3.6 nM enzyme; pre-incubated 30 minutes at 25° C., 60 minutes at 37° C.; sigmoidal fit; read-out: Cathepsin B (Inhibition of cysteine protease activities)
Method: Cathepsin B was diluted in Cathepsin B buffer (20 mM Tris HCl pH 6.8; 1 mM EDTA; 1 mM DTT). Compounds stocks (100 mM) were stored at −20° C. in DMSO. Compounds were tested at the following final concentrations: 100 μM; 33.3 μM; 11.1 μM; 3.7 μM; 1.23 μM; 412 nM; 137 nM; 45.7 nM; 15.2 nM; 5 nM. Reactions were performed as duplicates in Black LJL 96 well plates (HE microplates; Molecular Devices; 20 μl final reaction volume). The substrate concentration for cathepsin B specificity assay was 36 μM (z-RR-AMC; Calbiochem). The concentration of the enzyme (Cathepsin B) in specificity assays was 3.6 nM. The concentrations were determined in order to perform specificity assays under initial velocities at fixed substrate concentration. Compounds were pre-incubated with enzymes for 30 minutes at 25° C. Reactions were initiated by addition of substrate to the plates containing the enzymes (+/− compounds) diluted in assay buffer. Reactions were incubated for 60 minutes at 37° C. Reactions were stopped by adding acetic acid (100 mM final). Readings were performed on a Pherastar Fluorescent Reader (BMG). δ […]. Data (mean values +/− standard deviation) were analyzed as % of control (no compound) and plotted as percentage versus the Log of the compound concentration using GraphPad (Prism). Data were fitted to a sigmoidal model (variable slope).

| Molecule | IC50 (USP5) [nM] | IC50 (Cathepsin B) [nM] |
| --- | --- | --- |
| 6-(7)-Chloro-1-methyl-2,3,4,10,10a-pentaaza-cyclopenta[b]fluoren-9-one [Example 3/A] | 1540 | 17400 |
| Cc1nnc2nc3c(nn12)C(=O)c1ccccc1-3 [Example 1b/A, 1-Methyl-2,3,4,10,10a-pentaaza-cyclopenta[b]fluoren-9-one] | 7600 | 24000 |
| Cc1nnc2nc3c(nn12)-c1ccccc1C3=O [Example 1b/B, 3-Methyl-1,2,3a,4,10-pentaaza-cyclopenta[b]fluoren-9-one] | – | 182 |
| Nc1nnc2nc3c(nn12)C(=O)c1ccccc1-3 [Example 1c/A, 1-Amino-2,3,4,10,10a-pentaaza-cyclopenta[b]fluoren-9-one] | 2800 | 5000 |
| Nc1nnc2nc3c(nn12)-c1ccccc1C3=O [Example 1c/B, 3-Amino-1,2,3a,4,10-pentaaza-cyclopenta[b]fluoren-9-one] | – | 103 |
| CCc1nnc2nc3c(nn12)C(=O)c1ccccc1-3 [Example 1d/A, 1-Ethyl-2,3,4,10,10a-pentaaza-cyclopenta[b]fluoren-9-one] | 3230 | – |
| CCc1nnc2nc3c(nn12)-c1ccccc1C3=O [Example 1d/B, 3-Ethyl-1,2,3a, 4,10-pentaaza-cyclopenta[b]fluoran-9-one] | – | 150 |
| CCCc1nnc2nc3c(nn12)C(=O)c1ccccc1-3 [Example 1e/A, 1-Propyl-2,3,4,10,10a-pentaaza-cyclopenta[b]fluoren-9-one] | > 100000 | 5410 |
| CCCc1nnc2nc3c(nn12)-c1ccccc1C3=O [Example 1e/B, 3-Propyl-1,2,3a, 4,10-pentaaza-cyclopenta[b]fluoren-9-one] | – | 267 |
| CCCCc1nnc2nc3c(nn12)C(=O)c1ccccc1-3 [Example 1f/A, 1-Butyl-2,3,4,10,10a-pentaaza-cyclopenta[b]fluoren-9-one] | 3900 | 6500 |
| CCCCc1nnc2nc3c(nn12)-c1ccccc1C3=O [Example 1f/B, 3-Butyl-1,2,3a,4,10-pentaaza-cyclopenta[b]fluoren-9-one] | 237 | 233 |
| CC(C)Cc1nnc2nc3c(nn12)C(=O)c1ccccc1-3 [Example 1g/A, 1-Isobutyl-2,3,4,10,10a-pentaaza-cyclopenta[b]fluoren-9-one] | > 100000 | 4620 |
| CC(C)Cc1nnc2nc3c(nn12)-c1ccccc1C3=O [Example 1g/B, 3-Isobutyl-1,2,3a,4,10-pentaaza-cyclopenta[b]fluoren-9-one] | – | 264 |
| O=C1c2ccccc2-c2nc3nnc(CO)n3nc21 [Example 1h/A, 1-Hydroxymethyl-2,3,4,10,10a-pentaaza-cyclopenta[b]fluoren-9-one] | 2500 | 30000 |
| O=C1c2ccccc2-c2nn3c(CO)nnc3nc21 [Example 1h/B] | – | 547 |
| COCc1nnc2nc3c(nn12)C(=O)c1ccccc1-3 [Example 1i/A, 1-Methoxymethyl-2,3,4,10,10a-pentaaza-cyclopenta[b]fluoren-9-one] | > 100000 | 1020 |
| COCc1nnc2nc3c(nn12)-c1ccccc1C3=O [Example 1i/B, 3-Methoxymethyl-1,2,3a, 4,10-pentaaza-cyclopenta[b]fluoren-9-one] | 487 | 314 |
| O=C1c2ccccc2-c2nn3c(C4CC4)nnc3nc21 [Example 1j/B, 3-Cyclopropyl-1,2,3a,4,10-pentaaza-cyclopenta[b]fluoren-9-one] | – | 181 |
| O=C1c2ccccc2-c2nn3c(Cc4ccccc4)nnc3nc21 [Example 1k/B, 3-Benzyl-1,2,3a,4,10-pentaaza-cyclopenta[b]fluoren-9-one] | – | 363 |
| Cc1nnc2nc3c(nn12)-c1ccc(Cl)cc1C3=O [Example 3/B, 7-Chloro-3-methyl-1,2,3a, 4,10-pentaaza-cyclopenta[b]fluoren-9-one] | 260 | 147 |
| Cn1nc2nc3c(nc2n1)-c1ccccc1C3=O [Example 4a, 2-Methyl-2H-1,2,3,4,10-pentaaza-cyclopenta[b]fluoren-9-one] | 23000 | > 100000 |
